Laboratory results reported in US20190359560A1, “ANTI-INFLAMMATORY DRUG AND USES THEREOF” (KYUSHU UNIVERSITY, NATIONAL UNIVERSITY CORPORATION, priority 2015, published 2019).

Tests used:
G0S2 promoter = G0S2 promoter luciferase activity in O-4000E cell line, IC50; type: cell-based, mouse; details: O-4000E cells, 24 hours after exposure
Method: The present inventors have searched for a G0S2 gene transcription inhibitor. In searching, the present inventors have received a compound library consisting of 9600 compounds (Core library) from the Open Innovation Center for Drug Discovery, The University of Tokyo. For this compound library, primary screening was carried out by evaluating an effect of compounds on a luciferase activity using a 384-well plate. The drug efficacy evaluation was studied three times for each compound (final concentration of 10 μM) using a cell line stably expressing an expression cassette in which a luciferase gene was ligated to the downstream side of the G0S2 promoter (−2030→−1378), and compounds which reduced a luciferase activity to less than ¼ were extracted from all studies. As a result, 175 compounds were hit.
For the evaluation of drug efficacy of Compound Nos. 1 and 2, which are hit compounds, an IC50 was calculated. The O-4000E cell line was seeded, and Compound Nos. 1 and 2 were serially diluted in […] so as to have final concentrations of 0.15625 μM to 10 μM, followed by exposure of the cells to the compounds. The luciferase activity was measured 24 hours after the exposure, and the curve fitting was carried out to calculate an IC50 of the compounds.
Detailed drug efficacy evaluation at low concentrations was carried out for the compound of Example 2 (NS-3-011) whose drug efficacy at a concentration of less than 10 μM was observed based on the studies so far and which is expected to have an effect equal to or more than that of Compound No. 2. First, using O-4000E cells, IC50 of Compound No. 2 and the compound of Example 2 (NS-3-011) on the G0S2 promoter activity was calculated.

[1] = test system: neuropathic pain model mouse; assay: Neuropathic pain model constructed by cancer transplantation; type: in vivo; details: tumor-bearing mice 2 weeks after cancer transplantation, 15 mg/kg subcutaneous, at 4, 6 and 8 hours
Method: The neuropathic pain model constructed by cancer transplantation activates NF-κB. Therefore, a dose of 15 mg/kg of Compound No. 2 was subcutaneously administered to a model mouse in which the […] was carried out at 2 weeks after cancer transplantation and the pain intensity was measured to confirm that pain was induced.

Ccl2 mRNA = Ccl2 mRNA in Hepa1-6 cells exposed to LPS or TNFα; type: cell-based, mouse; details: 10 μM, 12 hours
Method: Next, whether or not Compound No. 2 whose effect in vivo was confirmed has an effect to antagonize the activation of an inflammatory signal was examined. Hepa1-6 cells were exposed to Compound No. 2 at a dose of 10 μM simultaneously with exposure to lipopolysaccharide (LPS) or TNFα which activates NF-κB for which the G0S2 protein acts as a regulator. As shown in FIGS. 10A and 10B, the cells were recovered 12 hours after the exposure and the expression level of Ccl2 mRNA was measured. […] In addition, 25 μg of LPS was administered to the tail vein of a mouse to thereby construct a hepatitis model. 30 minutes after the administration of LPS, Compound No. 2 (5 mg/kg) was administered to the tail vein of the mouse, and the liver was sampled at 6 hours.

[2] = test system: G0S2 promoter (−2030→+10); assay: G0S2 promoter (−2030→+10) luciferase assay in Hepa1-6 cells; type: cell-based, mouse; details: Hepa1-6 reporter cells, 10 μM, 24 hours
Method: To get closer to the environment in the liver, a cell stably expressing an expression cassette in which a luciferase gene was ligated to the downstream side of the G0S2 promoter (−2030→+10) was constructed in the Hepa1-6 cell, which is a mouse hepatoma-derived cell. Using this cell, an effect of the candidate compounds on the luciferase activity was evaluated in the same manner as in the primary screening described above.

G0S2 protein = G0S2 protein in liver of normal mice; type: in vivo, mouse; details: normal ICR male mice, 15 mg/kg subcutaneous, 4 hours and 6 hours after administration
[3] = test system: G0S2 transcriptional activity regulatory region; assay: Luciferase assay with G0S2 transcriptional activity regulatory regions of each length in NIH3T3 cells; type: cell-based, mouse; details: NIH3T3 stable cells, 10 μM, 24 hours
Method: Subsequently, these expression vectors were transfected into NIH3T3 cells, which are mouse fibroblast cells, to construct cells stably expressing luciferase.
Subsequently, Compound No. 2 or DMSO (control) at a final concentration of 10 μM was added to the medium of each cell. Subsequently, the cells were recovered after 24 hours and the luciferase activity was measured.

[4] = Blood and liver concentration after oral administration (LC/MS/MS); type: in vivo, mouse; details: mice, 15 mg/kg oral
Method: Compound No. 2 (15 mg/kg) was orally administered to mice. Blood was collected at 0 minutes, 5 minutes, 15 minutes, 30 minutes, 1 hour, 2 hours, 4 hours, 6 hours and 12 hours after the administration of Compound No. 2 and the blood concentration of the compound was measured by LC/MS/MS. In addition, the liver was harvested at 0 minutes, 5 minutes, 15 minutes, 30 minutes, 1 hour and 6 hours after the administration of Compound No. 2, and the liver concentration of the compound was measured by LC/MS/MS.

[5] = test system: nuclear receptor RARα mRNA; assay: RARα mRNA expression in Hepa1-6 cells (qRT-PCR); type: cell-based, mouse; details: 10 μM, 24 hours
G0S2 mRNA = G0S2 mRNA in liver of normal mice; type: in vivo, mouse; details: normal ICR male mice, 15 mg/kg subcutaneous
Method: An effect of Compound No. 2 with a lower IC50 value on the expression level of G0S2 mRNA in the liver of normal mice was examined. Compound No. 2 was subcutaneously administered on the dorsal region of ICR male mice at a dose of 15 mg/kg. The expression level of G0S2 mRNA in the liver at 30 minutes, 1, 2, 4, 6, 12, and 24 hours after the administration of Compound No. 2 was measured.

STAT5 protein = assay: Nuclear abundance of STAT5 protein in NIH3T3 cells (Western blotting); type: cell-based, mouse; details: NIH3T3 cells, 2.5, 5 and 10 μM, 24 hours, vs control
Method: Compound No. 2 or DMSO (control) at final concentrations of 2.5, 5 and 10 μM was added to the medium of NIH3T3 cells, which are mouse fibroblasts. Subsequently, the cells were recovered after 24 hours, the nuclear protein was prepared, and the abundance of the STAT5 protein was measured by Western blotting.

Q: Which IC50 (G0S2 promoter; Mus musculus, 24 h) does the source give for `CCCCCCNC(=N)NCc1ccccc1` [Compound No. 2] here?
A: 2250 nM

Q: And the IC50 (G0S2 promoter)?
A: 2310 nM

Q: What about the “pain intensity (PWT) over time” value [1] of the same compound?
A: significantly relieved

Q: What about the “expression of Ccl2 mRNA increased by LPS” value (Ccl2 mRNA; LPS 100 ng/mL) of the same compound?
A: significantly inhibited

Q: What about the “expression of Ccl2 mRNA increased by TNFα” value (Ccl2 mRNA; TNFα 200 ng/mL) of the same compound?
A: significantly inhibited

Q: What about the “G0S2 promoter (−2030→+10) activity (relative value)” value [2] of the same compound?
A: less than ½

Q: What about the “expression level of G0S2 protein in the liver” value (G0S2 protein) of the same compound?
A: significant decrease

Q: What about the “effect of inhibiting the expression of luciferase when the STAT5/6 binding region disappears” value [3] of the same compound?
A: decreased

Q: And the “time after administration at which concentration in blood was highest” value [4]?
A: 15 min

Q: What about the “time after administration at which concentration in liver was highest” value [4] of the same compound?
A: 5 min

Q: What about the “expression level of nuclear receptor RARα mRNA” value [5] of the same compound?
A: no change

Q: What about the “expression level of G0S2 mRNA in the liver” value (G0S2 mRNA; 2 hours and 12 hours) of the same compound?
A: significantly decreased

Q: What about the “expression level of G0S2 mRNA in the liver” value (G0S2 mRNA; 4 hours after administration) of the same compound?
A: tended to decrease to about half

Q: What about the “nuclear abundance of the STAT5 protein” value (STAT5 protein) of the same compound?
A: decreased in a dose-dependent manner
